{"source": "patent US12509462B2", "about": "“3-(phenylsulfonyl)-[1,2,3]triazolo[1,5A]quinazolin-5(4H)-one derivatives” (BIOVERSYS AG, priority 2018, dated 2025)", "origin": "cited, not measured here", "tested_on": "hla, psmα and pvl", "settings": "across all four agr groups; cited from earlier work"}
{"smiles": "CC(C)c1ccc(S(=O)(=O)c2nnn3c2nc(O)c2ccccc23)cc1", "note": "[Savirin, reference compound]", "values": [{"measurement": "Modulation of AgrA-regulated toxin gene transcription such as hla, psmα and pvl", "result": "potent modulator"}]}
